Source: PubChem BioAssay AID463074 (Broad Institute, 2010)
Active and inactive are the calls of the source.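 Rule for the calls: active = AC50 no more than tenfold above the top dose tested, or full inhibition at every dose with a flat fit (cut at about 19 µM in these data); inconclusive = flat curve fit with inhibition between 30% and 70%, or poor fit; inactive = AC50 more than tenfold above the top dose tested.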

Test system: HMLE_sh_eGFP viability, CellTiter-Glo luminescence, 72 h
Assay: viability loss of HMLE_sh_eGFP cells – cell-based, luminescence, counter-screen for HMLE_sh_ECad selective toxicity project, dose response (AID 463074);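 note: counterscreen control line to flag general toxicity for the HMLE_sh_ECad screen; potency for loss of viability as luminescence drops below DMSO wells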

Compound | AC50
Cc1nc(-c2ccccc2)sc1C(=O)/C=C/c1ccc(Cl)cc1 | 7.62 µM
CC(C)(C)c1nn(-c2ccccc2)c2[nH]c(=O)c(C=O)cc12 | 8.18 µM
OC(CNCCc1ccc(C(F)(F)F)cc1)COc1ccc2ccccc2c1 (centres undefined) | 4.98 µM
CCN(CC)S(=O)(=O)c1ccc(NC(=O)Nc2cccc(C(F)(F)F)c2)cc1 | 3.54 µM
COc1cc(/C=C/c2ccc3cccc(OC)c3n2)c(OC(C)=O)c([N+](=O)[O-])c1 | 16.2 µM
O=S(=O)(c1ccc2ccccc2c1)N1CCN(c2ccc(O)cc2)CC1 | 8.59 µM
CN(C)CCOc1ccc(C(C)(C)c2ccccc2)cc1 | 5.19 µM
COc1ccc(-c2oc3ccccc3c2C#Cc2cncn2C)cc1 | 4.37 µM
Cc1c(C(=O)Nc2ccc(-c3nnc4n3CCCCC4)cc2)oc2c1ccc1ccccc12 | 5.66 µM
Cc1ccc(C)c(NC(=O)c2ccccc2NS(=O)(=O)c2cc([N+](=O)[O-])ccc2C)c1 | 4.27 µM
Cc1cc(SCC(=O)N/N=C/c2ccc(O)cc2O)c(C)cc1Br | 4.42 µM
CN1CCN(C2=Cc3cc(Cl)ccc3Sc3cc(F)ccc32)CC1 | 7.29 µM
Cc1ccc(C)c(N2CCN(C(=O)c3ccc4c(c3)c(C)c(C)n4C)CC2)c1 | 9.07 µM
COc1ccc(-c2sc3ccccc3c2/C=C/c2ccncc2)cc1 | 6.68 µM
O=C(Nc1ccc(Cl)c(C(F)(F)F)c1)NC1CC2CCCC(C1)N2Cc1ccccc1 (centres undefined) | 6.8 µM
CCOc1ccc(N/C(N)=N/c2nc(CSc3nnc(C)s3)cc(=O)[nH]2)cc1 | 0.609 µM
O=c1c(Cl)c(NCc2ccc(F)cc2)cnn1C12CC3CC(CC(C3)C1)C2 | 2.15 µM
O=C(N[C@H]1C/C=C\C[C@@H](CC(=O)N(CCO)Cc2ccccc2)C(=O)NC[C@H](c2ccccc2)OC1=O)OCC1c2ccccc2-c2ccccc21 | 2.41 µM
OC1CCN(c2cc(-c3ccccc3)nc3cc(-c4ccc(F)cc4)nn23)CC1 | 7.31 µM
Cc1c(CCOC(=O)C2C3CC4CC(C3)CC2C4)sc[n+]1CC(=O)c1ccc(Br)cc1 (centres undefined) | 2.44 µM
N#Cc1c(-c2ccccc2)nc(SCc2cccc(Cl)c2)[nH]c1=O | 7.69 µM
Cc1sc2nc(SCCN(C)C)n(-c3ccccc3)c(=O)c2c1-c1ccc(F)cc1 | 10.2 µM
COc1ccc(S[C@@H](CCN2CC[C@H](NC(=O)OCc3ccccc3)CCC2=O)c2ccccc2)cc1 | 3.12 µM
CCN1CCN(c2cc(C(C)(C)C)nc3c(-c4ccccc4)c(C)nn23)CC1 | 6.81 µM
CC(C)C[C@H](N)c1nnc(S(=O)(=O)Cc2ccc(F)cc2)o1 | 8.54 µM
O=S(=O)(Nc1ccc(O)c(Sc2nc3ccccc3s2)c1)c1cccc2ccccc12 | 5.83 µM

Compound | AC50
O=[N+]([O-])c1cc(S(=O)(=O)C(F)(F)F)ccc1Sc1nc2ccccc2[nH]1 | 4.46 µM
Cc1ccc2nc(-c3ccccn3)c(Nc3ccccc3C)n2c1 | 5.04 µM
C[C@@H]1O[C@@H](O[C@H]2C[C@@H](O)[C@]3(CO)[C@@H]4C(CC[C@]3(O)C2)[C@@]2(O)CC[C@H](C3COC(=O)C3)[C@@]2(C)C[C@H]4O)[C@H](O)[C@H](O)[C@H]1O (some centres undefined) | 0.707 µM
CCN(CC)S(=O)(=O)c1cccc(NC(=O)Nc2cccc(C(F)(F)F)c2)c1 | 3.56 µM
O=C1[C@H]2CCCC[C@H]2C(=O)N1CCCCN1CCN(c2nsc3ccccc23)CC1 | 4.51 µM
O=C(Nc1cccc(-c2csc(Nc3ccc(Cl)cc3)n2)c1)c1cc([N+](=O)[O-])cc(C(F)(F)F)c1 | 6.88 µM
CC(C)(C)c1cc(-c2nc(N)nc(N)n2)c(O)c(C(C)(C)C)c1 | 3.57 µM
COc1cc(S(=O)(=O)N2CCCCCC2)c(OC)cc1Br | 2.55 µM
CCOC(=O)c1c(C)nc2c(c1-c1ccc(Cl)cc1)C(=O)CC(C)(C)C2 | 18.1 µM
CC(C)C[C@H](NC(=O)c1nc[nH]c1C(=O)NC(c1ccccc1)c1ccccc1)C(=O)OC(C)(C)C | 3.67 µM
COC(=O)c1cc(NC(=O)c2cc(-c3ccccc3Cl)oc2C(F)(F)F)ccc1N1CCOCC1 | 20.3 µM
Cc1ccc(F)c(NC(=O)/C(C#N)=C(\O)c2ccc(C(C)(C)C)cc2)c1 | 8.58 µM
N#CC1(NC(=O)COC(=O)c2cc(O)c3ccccc3c2O)CCCCC1 | 9.15 µM
COc1cc(/C=N/NC(=O)c2cc(C34CC5CC(CC(C5)C3)C4)[nH]n2)ccc1O | 0.24 µM
O=C(Nc1ccccc1)NN(C(=O)CCl)c1ccccc1 | 6.45 µM
O=C(c1c[nH]c2ccccc12)C(Cl)c1ccccc1 (centres undefined) | 11.2 µM
OC(COCC(F)(F)C(F)(F)C(F)(F)C(F)F)Cn1c2ccccc2c2ccccc21 (centres undefined) | 6.63 µM
CC(C)(Sc1ccc(CCN(CCCCC2CCCCC2)C(=O)NC2CCCCC2)cc1)C(=O)O | 5.57 µM
COc1cccc(-c2sc3ccc(OC)cc3c2C#CCCO)c1 | 8.26 µM
Cc1ccc(-c2cc(C(=O)N3N=C(C(F)F)CC3(O)C(F)F)c3ccccc3n2)cc1C (centres undefined) | 4.55 µM
COc1ccc(C(=O)/C=C/c2cc(OC)c(O)c(OC)c2)c(F)c1 | 12.3 µM
CCOc1ccc(OCC(=O)N(CCC2=CCCCC2)c2c(N)n(Cc3ccccc3)c(=O)[nH]c2=O)cc1 | 6.29 µM
CN(C)c1ccc(-c2cc([C@H]3[C@@H]4C=CCC[C@@]4(C)C(=O)N3Cc3ccccc3)ccc2F)cc1 | 6.46 µM
Cc1cc(C(=O)NNc2ccc(F)cc2)no1 | 1.68 µM
Cc1cc(=O)[nH]c(N/N=C/c2ccccn2)n1 | 1.53 µM
O=C1Nc2ccc(Cl)cc2[C@@](C#CC2CC2)(C(F)(F)F)O1 | 7.55 µM

Compound | AC50
COc1ccc2c(c1)-c1nc(NC(=O)c3cccs3)sc1CC2 | 11.3 µM
O=C(NCc1cccnc1)/C(=C/c1ccc(-c2cccc(Cl)c2)o1)S(=O)(=O)c1ccccc1 | 2.66 µM
COc1cc2c(-c3ccc(O)cc3)nc3c(c(C)nn3-c3ccccc3)c2cc1OC | 3.92 µM
CCOC(=O)/C=C/C(=O)Nc1cccc([N+](=O)[O-])c1 | 8.97 µM
C=CCC[C@H](Cc1ccc(F)cc1)C(=O)OC[C@@H](Cc1c[nH]c2ccccc12)NC(=O)[C@H](CC=C)CC(=O)N(CCO)Cc1ccccc1 | 4.1 µM
O=C(/C=C/c1c(F)cccc1Cl)c1ccc(O)cc1 | 7.97 µM
Cc1ccc(NC(=S)Nc2cccc3cnccc23)cc1C | > 19.5 µM (inactive)
CCN1C(=O)/C(=C\c2ccncc2)SC1=Nc1ccc(C)c(C)c1 | 6.82 µM
O=[N+]([O-])c1cc(-c2cnc3ccccc3n2)ccc1Oc1ccc(Cl)cc1 | 3.38 µM
CC(C)COC(=O)c1cccc2c1-c1ccccc1/C2=N\O | 5.27 µM
C=C(C)COc1ccc(-c2n[nH]c(C)c2-c2ccc(OC)cc2)c(O)c1 | 4.47 µM
Cc1cc(C)cc(CC(Cc2nc3ccccc3[nH]2)c2nc3ccccc3[nH]2)c1 (centres undefined) | 7.82 µM
CC(C)c1nc2sc3ccccc3c(=O)c2c(=O)n1Cc1ccccc1 | 6.29 µM
C=C(C)CNC(=S)NNC(=O)CCn1c2ccc(Cl)cc2c2cc(Cl)ccc21 | 1.8 µM
NC(=O)CC(NC(=O)c1ccc(Br)cc1)c1ccc(N2CCCCCCC2)c([N+](=O)[O-])c1 (centres undefined) | 7.85 µM
CC1(c2ccc(O)cc2)NC(=O)N(c2ccccc2)N1 (centres undefined) | 8.69 µM
CCC1=Nc2cc(C(=O)NCc3cccnc3)ccc2Sc2ccc(C)cc21 | 0.816 µM
COc1ccc2nc(NC(=O)c3cccc(-c4cc5ccccc5oc4=O)c3)sc2c1 | 4.88 µM
COc1ccc(-c2cccc([C@H]3[C@@H]4C=CCC[C@@]4(C)C(=O)N3Cc3ccccc3)c2)cc1 | 7.45 µM
CC1(C)CC2CC(C)(CN2/C=N/c2sc3c(c2C#N)CC(C)(C)NC3(C)C)C1 (centres undefined) | 2.59 µM
Cn1nnnc1Sc1ncnc2scc(-c3cccc4c3sc3ccccc34)c12 | 1.65 µM
O=C(/C=C\c1ccccc1)NCC(=O)N/N=C/c1ccc(O)cc1O | 12 µM
COc1ccc(Sc2ccc(-c3nc4cnccn4c3NC3CCCCC3)cc2OC)cc1 | 3.57 µM
O=C(Nc1ccn(Cc2ccccc2F)n1)c1ccc(COc2ccccc2Cl)cc1 | 3.52 µM
COc1cc(/C=C/c2[nH]c(=O)[nH]c(=O)c2[N+](=O)[O-])ccc1OCCC(C)C | 7.14 µM
OCCNc1nc(Nc2ccc(Cl)c(Cl)c2)nc2ccccc12 | 6.96 µM

Compound | AC50
CC(C)(C)[C@@H]1CCC(=O)N(CC[C@H](Sc2ccccc2)c2ccccc2)CC1 | 3.95 µM
Cc1nc(NC(=O)CC(C)C)sc1-c1csc(Nc2ccc(Cl)cc2Cl)n1 | 2.38 µM
O=C(Nc1ccc(-c2csc(Nc3cccc(C(F)(F)F)c3)n2)cc1)c1cc([N+](=O)[O-])cc(C(F)(F)F)c1 | 1.93 µM
O=C(Nc1ccc(Cl)cc1)N1CCCN(c2ccc(C(F)(F)F)cc2[N+](=O)[O-])CC1 | 6.57 µM
COc1ccc([N+](=O)[O-])cc1Nc1c2ccccc2nc2ccccc12 | 1.43 µM
Cc1c(C(=O)c2cccc3ccccc23)c2cccc3c2n1[C@H](CN1CCOCC1)CO3 | 3.66 µM
CCCCN(CCCC)CCC(O)c1cc2c(Cl)cc(Cl)cc2c2cc(C(F)(F)F)ccc12 (centres undefined) | 7.54 µM
COC(=O)c1cc(=O)n(Cc2cccs2)c(=Nc2ccc(F)cc2)s1 | 3.58 µM
Cc1ccnc2c1ccc1c(C)ccnc12 | 0.937 µM
c1ccc(C[C@H]2CNCCN2CCCCC2CCCCC2)cc1 | 6.83 µM
COc1cc(C(=O)OC2CC3CCC2(C)C3(C)C)ccc1OC(C)=O (centres undefined) | 6.46 µM
CCc1ccc2[nH]c3nc(N/N=C/c4cccc(O)c4)nnc3c2c1 | < 0.16 µM
N#Cc1ccc(Nc2nc(-c3ccc(O)cc3O)cs2)cc1C(F)(F)F | 3.87 µM
CC1(C)CN(c2ccccc2)N(C(=O)c2ccc(F)cc2)C1=O | 5.6 µM
Oc1ccc(-c2csc(Nc3ccccn3)n2)c(O)c1 | 3.93 µM
CC(C)=CCOc1ccc([C@@H]2COc3c(ccc4c3C=CC(C)(C)O4)C2)c(O)c1 | 3.04 µM
COc1ccccc1C1c2ccc3ccccc3c2Oc2ncn(CCN(C)C)c(=N)c21 (centres undefined) | 4.22 µM
O=C(NC(=S)NCCc1ccccc1)C1CCCCC1 | 18.4 µM
O=C1NN(c2cccc(Br)c2)C(=O)/C1=C\c1ccccc1 | 6.97 µM
CCOC(=O)c1sc(NC(=O)Nc2ccccc2Cl)cc1C | 7.58 µM
CN1/C(=C\C(=O)Nc2ccc(Br)cc2)C(C)(C)c2ccccc21 | 7.32 µM
CC(C)(C)[C@H](N)C(=O)N[C@H]1CCC2C3CC=C4C[C@@H](O)CC[C@]4(C)C3CC[C@@]21C (some centres undefined) | 7.74 µM
N#Cc1c(NC(=O)c2ccc(Cn3cc(Br)cn3)o2)sc2c1CCCCC2 | 13.4 µM
COc1ccc2nc(C)cc(SCC(=O)N/N=C/c3ccc(O)cc3O)c2c1 | 2.33 µM
COc1cc(F)c(C2=CC(=O)C[C@H](c3ccc(Cl)cc3)C2)cc1F | 3.48 µM
CCCOc1ccc(/C=N/Nc2cccc([N+](=O)[O-])c2)c(O)c1 | 3.42 µM
